Laboratory results from patent publication US11352400B2, “PI3K gamma inhibitor peptide for treatment of respiratory system diseases” (Kither Biotech S.r.I., priority 2014, dated 2022).

What was measured:
PDE4D = experiment: Phosphodiesterase activity in anti-PDE4D immunoprecipitates from treated tracheal smooth muscle cells; assay type: cell-based, mouse; conditions: tracheal smooth muscle cells of wild-type mice (PI3Kγ+/+); 50 μM, 30 minutes
Description: For protein extraction from murine tracheal smooth muscle cells (mTSMCs) and human bronchial smooth muscle cells (hBSMCs), cells were treated with the indicated drugs/peptides and immediately lysed in cold lysis buffer containing 120 mmol/L NaCl, 50 mmol/L Tris-HCl (pH 8.0), complete protease inhibitors (Roche Applied Science, Indianapolis, Ind.) and phosphatase inhibitors (50 mmol/L sodium fluoride, 1 mmol/L sodium orthovanadate and 10 mmol/L sodium pyrophosphate). After 30 min of incubation on ice, lysates were centrifuged at 13000 rpm for 10 min at 4° C. and used for either Western blotting or subjected to immunoprecipitation and measurements of phosphodiesterase activity. […]
Phosphodiesterase activity in immunoprecipitates was measured according to the two-step method of Thompson and Appleman, as previously described (2), with minor modifications. […] The amount of radiolabeled adenosine in the supernatant was quantified by scintillation counting (Ultima Gold liquid scintillation from Perkin Elmer, Waltham, Mass.).
Murine tracheal smooth muscle cells were cultured from explants of trachea using previously described methods with modifications. […] More than 90% of these cells were smooth muscle cells, as determined by immunofluorescence performed with an antibody specific for smooth muscle actin. […]

[1] = system: ovalbumin (OVA)-induced asthma mice; experiment: Airway hyperresponsiveness (tidal volume) in ovalbumin-induced asthma model; assay type: in vivo, BALB/C mice; conditions: OVA-sensitized mice; 150 μg intra-tracheal, 30 minutes before methacholine; vs PBS or P1
Description: Ovalbumin (100 μg) (OVA, Sigma-Aldrich, St. Louis, Mo.), complexed with aluminum potassium sulfate (1 mg, alum) was administered intraperitoneally (i.p.) on days 1 and 14, and intra-nasally (i.n.) (50 μg OVA in 50 μl PBS) on days 14, 25, 26, and 27. Control mice received i.p. injections of alum and i.n. injections of PBS only. Airway hyperreactivity induced by inhaled methacholine was measured at 24 hours after the final dose of OVA (Day 28).
Method 2: Mice sensitized to ovalbumin were treated, by intra-tracheal instillation, with 70 μL of phosphate-buffered saline solution (PBS) containing vehicle or 150 μg of the Trojan peptide derived from PI3Kγ or equimolar amounts of P1 control peptide. Airway hyperresponsiveness was assessed at 30 minutes after the treatment according to a previously published protocol (6). […] The airway opening pressure (Pao), proximal to the endotracheal tube, and the pressure inside the chamber were measured with pressure transducers (Special Instruments, Digima Clic; Nordlingen, Germany). Gas flow was measured with a pneumotachograph (Special Instruments, Digima Clic; Nordlingen, Germany). Tidal volume was calculated as the integral of the flow signal. Variables of mechanical ventilation were recorded using the ICU-Lab software (KleisTEK Advanced Electronic Systems, Bari, Italy). […]

[2] = system: cAMP levels in the airways; experiment: cAMP extraction and quantification in trachea and lungs of treated mice; assay type: in vivo, BALB/C mice; conditions: intra-tracheal, 1.5 μg/mouse, 30 minutes; vs PBS or P1 control peptide
Description: Lungs and trachea were explanted from animals following euthanasia, pulverized in liquid nitrogen and used for cold extraction of cAMP with 6% trichloroacetic acid. Samples were sonicated for 10 seconds and centrifuged at 13000 rpm at 4° C. for 15 minutes. Supernatants were washed four times with five volumes of diethyl ether saturated with water and lyophilized. cAMP content was detected with an Amersham cAMP BioTrak Enzymeimmunoassay System (GE Healthcare Life Sciences, Pittsburgh, USA, product code: RPN225), according to the manufacturer's protocol.
Wild-type BALB/C mice were injected by the intra-tracheal route with 1.5 μg of the Trojan peptide derived from PI3Kγ conjugated to fluorescein or vehicle, in a final volume of 70 μL of PBS. After 30 minutes, animals were anesthetized, the trachea and lungs were insufflated with PBS, extracted and frozen in OCT. Cryosections of 10 microns were obtained with a Leica CM1850 cryostat (Leica Microsystems GmbH, Wetzlar, Germany) and fluorescence was acquired with a Zeiss Observer-Z1, equipped with an Apotome module (Carl Zeiss, Oberkochen, Germany).

[3] = system: airway hyperreactivity induced by the muscarinic agonist methacholine in healthy mice; experiment: Airway hyperreactivity to methacholine in healthy mice; assay type: in vivo, BALB/C mice; conditions: peptide 1.5 μg or equimolar P1, increasing doses of methacholine

## RQIKIWFQNRRMKWKKGKATHRSPGQIHLVQRHPPSEESQAF (fusion peptide comprising SEQ ID No.1 and SEQ ID No.3) [Trojan peptide derived from PI3Kγ]
PDE4D
  catalytic activity of PDE4D: significantly reduced
[1]
  reduction of the tidal volume induced by methacholine: significantly attenuated
[2]
  cAMP levels in the trachea and in the lungs, higher than controls: 30%
[3]
  airway hyperreactivity induced by methacholine (average lung resistance): significantly attenuated
